Counter-ions that a name gives are not always drawn. Like-named read-outs stand apart in the source and are kept apart here.

For orientation: IC50 means the concentration that gives 50% inhibition.

The test deals with rat basophilic leukemia cells (RBL-2H3). The test is described as follows: Degranulation inhibitory activity: hexosaminidase release-inhibitory activity test. Type of test: cell-based. Conditions: for IC50 value (inhibition of release of hexosaminidase) / IC50: IgE-sensitized RBL-2H3 cells, DNP-BSA antigen-induced degranulation; for Activity compared with the positive control ketotifen fumarate: statement in words, hexosaminidase release, RBL-2H3. As for the experimental part: With regard to the measurement of degranulation inhibitory activity, a test for hexosaminidase release-inhibitory activity was carried out by referring to Non-Patent Document 1 and Non-Patent Document 2 (Kataoka M., Takagaki Y., Shoyakugaku Zasshi, 46(1), 25-29, 1992). Firstly, rat basophilic leukemia cells (RBL-2H3) were made into 5×10^5 cells/mL and seeded on a 96-well plate and anti-DNP-BSA mouse IgE antibody was added thereto so as to make its final concentration 0.29 μg/mL and incubated with 5% CO2 at 37° C. overnight in an incubator to sensitize the cells. Then the cells were washed with a phosphate-buffered physiological saline solution twice and 130 μL of a releasing mixture (comprising 116.9 mM of NaCl, 5.4 mM of KCl, 0.8 mM of MgSO4, 2.0 mM of CaCl2, 5.6 mM of glucose, 0.1% of bovine serum albumin and 25 mM of HEPES) was added thereto.
Then, Compounds (A) and (C) obtained in the invention were first dissolved in 25% ethanol, and then Compound (A) was diluted with 1% ethanol to achieve the final concentration in 7 serial dilutions in steps of from 1 μg/mL to 5 ng/mL; and Compound (C) was diluted with 1% ethanol to achieve the final concentration by 7 serial dilutions in steps of from 10 μg/mL to 50 ng/mL. Compound (B) was first dissolved in water, and then diluted with 1% ethanol to achieve the final concentration by 7 serial dilutions in steps of from 50 μg/mL to 50 ng/mL. Compound (D) was diluted with 4% ethanol-20 mM phosphate buffer to achieve the final concentration by 4 serial dilutions in steps of 2.6 μg/mL to 165 ng/mL. 10 μL portion samples of all concentrations of Compounds (A), (B), (C) and (D) were added to the cells, respectively, and allowed to stand at 37° C. under 5% CO2 in an incubator for 10 minutes. Then 10 μL of an antigen DNP-BSA (2 μg/mL) was added, the mixture was allowed to stand in an incubator for 1 hour to induce degranulation, and centrifuged to collect the supernatant. 15 μL of a 5 mM hexosaminidase substrate solution (p-nitrophenyl-β-D-glucosaminide) was added to 45 μL of the supernatant liquid, the mixture was made to react at 37° C. for 3 hours and 180 μL of a solution for stopping the reaction (0.1M NaHCO3/Na2CO3; pH 10.0) was added thereto. After completion of the reaction, absorbance at 415 nm was measured and the hexosaminidase release-inhibitory activity was calculated by the following formula. Meanwhile, a positive control (200 μM of ketotifen fumarate) and a negative control corresponding to the final solvent concentration for the test substance were prepared.
Hexosaminidase release-inhibitory Activity(%)=[1−(S−B/C−b)]×100
S: absorbance of the test substance upon addition of cells
B: absorbance upon addition of the test substance in the absence of the cells
C: absorbance of the negative control
b: absorbance in the absence of cells

Setting [1] is: molar concentration, read-out: IC50 value (inhibition of release of hexosaminidase), molar value in brackets.
The mark [2] stands for this setting: Rattus norvegicus, mass concentration, read-out: IC50 value (inhibition of release of hexosaminidase).
Where [3] appears, read: Rattus norvegicus, molar concentration, read-out: IC50 value (inhibition of release of hexosaminidase), molar value in brackets.

As for `COc1c(O)cc2c(=O)oc3c(O)c(OC4O[C@H](CO)[C@@H](O)[C@H](O)[C@H]4O)cc4c(=O)oc1c2c34` (stereo partly shown) [Compound (B), 3-O-methylellagic acid 4′-glucoside], the “Activity compared with the positive control ketotifen fumarate” value was “higher activity”. Further, the “IC50 value (inhibition of release of hexosaminidase)” value (mass concentration) was 14.83 mg/L. Also, the IC50 under setting [1] amounted to 31 µM.

Turning to `COc1cc2c(=O)oc3c(OC)c(O)cc4c(=O)oc(c1OC)c2c34` [Compound (C), 3,3′,4-tri-O-methylellagic acid], the “Activity compared with the positive control ketotifen fumarate” value is “higher activity”. The IC50 under setting [2] came out at 4.47 mg/L. The half-maximal inhibitory concentration (IC50) under setting [3] amounted to 13 µM.

As to `CN1CCC(=C2c3ccccc3CC(=O)c3sccc32)CC1` [Ketotifen fumarate, ketotifen fumarate, reference compound], the IC50 worked out at 71.8 mg/L under setting [2] and 169 µM under setting [3].

For `O=c1oc2c3c(cc4c(=O)oc5c(O)c(O)cc1c5c24)OCO3` [Compound (D), 3,4-dioxoloellagic acid], the “Activity compared with the positive control ketotifen fumarate” value was “higher activity”. The IC50 under setting [2] worked out at 1.07 mg/L. Moreover, under setting [3], the IC50 was found to be 3 µM.

As to `O=c1oc2c3c(cc4c(=O)oc5c(O)c(OC6O[C@H](CO)[C@@H](O)[C@H](O)[C@H]6O)cc1c5c24)OCO3` (stereo partly shown) [Compound (A), 3,4-dioxoloellagic acid 4′-glucoside], the “IC50 value (inhibition of release of hexosaminidase)” value (mass concentration) came to 0.00663 mg/L. In addition, the IC50 under setting [1] came to 0.014 µM.

Source of the values: patent publication US20090143318A1, “DEGRANULATION INHIBITOR” (Tropical Technology Center Ltd., priority 2006, published 2009).
